Assay results taken from patent US8975371B2, “Melanoma antigen peptide and uses thereof” (INSERM (Institut National de la Sante et de la Recherche …, priority 2008, dated 2015).
pEC50: −log10 of the molar value. Read-outs that look alike come from different tables or passages of the source.

How the values were obtained:
Type in all cases: cell-based, human
[1] = test system: MELOE-1 specific T cell clones / peptide-loaded T2 cells; test: Relative avidity of MELOE-1 specific T cell clones, 4-h 51Cr assay against peptide-loaded T2 cells
Protocol: Cytotoxicity of MELOE-1 specific CTL clones against peptide-pulsed T2 cells. Target cells were chromium labeled for 60 min and incubated for 30 min with a range of the MELOE-136-44 peptide. T cell clones derived from healthy donors (A), melanoma patients PBMC (B) and TIL (C) were added at an E/T ratio of 10/1 and chromium release was then measured after a 4 h incubation period. (D) Mean EC50 of the MELOE-1 specific T cell clones in response to the MELOE-136-44 peptide, according to their origin. EC50 were compared using statistical analysis done with InStat 2.01. Data were analyzed using Kruskal-Wallis comparison test. *p=0.019, considered significant.
The relative avidity of […] specific T cell clones and their anti-tumor reactivity was measured respectively in a standard 4-h assay against ^51Cr-labeled peptide-loaded T2 cells and towards HLA-A2 melanoma cell lines. Briefly, target cells (peptide pulsed-T2 or melanoma cells) were incubated with 100 μCi Na2^51CrO4 (Oris Industrie, Gif-sur-Yvette, France) at 37° C. for 1 h. For peptide recognition assays, T2 cells were preincubated with a range of […] peptide concentrations for 1 h at 37° C. […] Data were analyzed using Kruskal-Wallis comparison test, followed by Dunn'post test. […]

[2] = test system: M170.48 CTL clone / peptide-pulsed T2 cells; test: Cytotoxicity of M170.48 CTL clone against peptide-pulsed T2 cells (4 h 51Cr release); settings: peptide loaded on T2 cells
Protocol: (§1) (A) Structure of meloe cDNA. Black boxes correspond to ORFs tested for recognition by the CTL clone. (B) M170.48 and M170.51 TNF responses to COS-7 cells (E/T ratio 1/3) transfected with indicated plasmids. T cell clone was added 2 days after the transfection and the CTL clone reactivity was assessed by a TNF release assay. (C) Amino acid sequences of the ORF 1230-1370 and the ORF 285-404 of meloe isolated from M134 cDNA library. (D and E) Cytotoxicity of M170.48 CTL clone (D) and M170.51 CTL clone(E) against peptide-pulsed T2 cells. Target cells were chromium labeled for 60 min and incubated for 30 min with a range of the indicated peptides. T cell clones were added at an E/T ratio of 10/1 and chromium release was then measured after a 4 h incubation period.
(§2) Cytotoxic activity of T cells was measured in a standard 4-h assay against ^51Cr-labeled cells (peptide-loaded T2 cells or tumor cell lines) (23). […] After staining, cells were resuspended in PBS and analyzed on a LSR flow cytometer using Cell Quest software. […]

[3] = test system: M170.51 CTL clone / peptide-pulsed T2 cells; test: Cytotoxicity of M170.51 CTL clone against peptide-pulsed T2 cells (4 h 51Cr release); settings: peptide loaded on T2 cells
Protocol: as §1, §2

Row | Sequence | pEC50 ([1]; healthy donor clonotype HD1.21, read-out: EC50 of clonotype HD1.21) | pEC50 ([1]; healthy donor clonotype HD3.38, read-out: EC50 of clonotype HD3.38) | recognition by M170.48 T cell clone [2] | pEC50 ([2]; M170.48 CTL clone, E/T ratio 10/1, 4 h chromium release, read-out: half maximal lysis) | recognition by M170.51 T cell clone [3] | EC50 ([3]; M170.51 CTL clone, E/T ratio 10/1, 4 h chromium release, read-out: half maximal lysis (converted)) [nM]
1 | TLNDECWPA | 8.00 | 9.00 | recognized | 8.00 |  | 
2 | RCPPKPPLA |  |  |  |  | recognized | 50
